# Source: patent publication US20100150839A1, “Compositions and Methods for Modulating Cognitive Function” (Massachusetts Institute of Technology, priority 2005, published 2010)
# Tested on: cultured primary hippocampal neurons
# Test: Translation reporter assay: EGFP-αCaMKII 3′ UTR reporter mRNA transfected into neurons
# Format: cell-based, rat
compound,measurement,value
N#CC(=C(/N)Sc1ccccc1N)/C(C#N)=C(\N)Sc1ccccc1N [U0126],Translation of EGFP-αCaMKII-A20 reporter mRNA,still more strongly inhibited
